What is called EC50 is the concentration needed to bring the measured effect to its halfway point. The low end stands for greater potency, the high end for weaker potency.

14 compounds from patent US11279701B2, “Immunomodulators and immunomodulator conjugates” (REGENTS OF THE UNIVERSITY OF MINNESOTA, priority 2016, dated 2022) can be followed below.

The target in one assay is T1, human TLR-7 (Homo sapiens, UniProt Q9NYK1).
T1 construct: host or cells: HEK cells stably transfected with human TLR-7 and an NF-κB-responsive SEAP reporter (HEK-TLR-7)
T1 sequence (Q9NYK1 27-1049): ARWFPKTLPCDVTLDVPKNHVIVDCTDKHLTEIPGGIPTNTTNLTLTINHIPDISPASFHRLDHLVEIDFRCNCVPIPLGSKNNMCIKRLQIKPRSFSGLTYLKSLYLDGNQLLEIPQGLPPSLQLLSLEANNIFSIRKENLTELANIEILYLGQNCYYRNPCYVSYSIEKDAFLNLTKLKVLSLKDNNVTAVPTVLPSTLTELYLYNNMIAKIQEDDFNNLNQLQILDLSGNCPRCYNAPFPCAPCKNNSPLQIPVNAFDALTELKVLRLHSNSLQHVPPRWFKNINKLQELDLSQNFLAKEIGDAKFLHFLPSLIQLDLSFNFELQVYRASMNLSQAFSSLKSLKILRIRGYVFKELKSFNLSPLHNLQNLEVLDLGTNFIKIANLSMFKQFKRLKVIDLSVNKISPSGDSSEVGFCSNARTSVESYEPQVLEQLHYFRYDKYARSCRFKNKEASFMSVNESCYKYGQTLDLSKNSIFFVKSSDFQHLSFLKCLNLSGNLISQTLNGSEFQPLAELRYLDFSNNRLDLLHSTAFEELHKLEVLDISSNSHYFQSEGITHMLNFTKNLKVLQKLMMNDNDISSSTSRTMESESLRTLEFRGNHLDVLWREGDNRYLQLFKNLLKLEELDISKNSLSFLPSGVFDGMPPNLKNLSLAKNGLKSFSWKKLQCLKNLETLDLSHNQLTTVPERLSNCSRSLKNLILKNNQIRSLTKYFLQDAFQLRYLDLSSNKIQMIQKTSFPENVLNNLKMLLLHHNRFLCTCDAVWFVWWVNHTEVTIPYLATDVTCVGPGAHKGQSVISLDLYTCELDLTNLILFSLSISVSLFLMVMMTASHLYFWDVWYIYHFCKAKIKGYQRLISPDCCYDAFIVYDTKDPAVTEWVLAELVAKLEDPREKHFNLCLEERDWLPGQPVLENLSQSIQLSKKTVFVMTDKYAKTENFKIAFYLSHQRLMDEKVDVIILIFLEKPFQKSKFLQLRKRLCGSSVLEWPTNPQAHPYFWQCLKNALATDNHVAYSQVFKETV
Briefly: TLR7/8-NF-κB Reporter Assay (HEK SEAP Reporter Assay), HEK-TLR-7 cells. Type of assay: cell-based. The note with it: HEK cells stably transfected with human TLR-7 and NF-κB-responsive SEAP gene, 24 h. (Reporter assays use an easily measured gene product as a stand-in for the process of interest.)

The next assay deals with T2, human TLR-8 (Homo sapiens, UniProt Q9NR97).
T2 construct: host or cells: HEK cells stably transfected with human TLR-8 and an NF-κB-responsive SEAP reporter (HEK-TLR-8)
T2 sequence (Q9NR97 27-1041): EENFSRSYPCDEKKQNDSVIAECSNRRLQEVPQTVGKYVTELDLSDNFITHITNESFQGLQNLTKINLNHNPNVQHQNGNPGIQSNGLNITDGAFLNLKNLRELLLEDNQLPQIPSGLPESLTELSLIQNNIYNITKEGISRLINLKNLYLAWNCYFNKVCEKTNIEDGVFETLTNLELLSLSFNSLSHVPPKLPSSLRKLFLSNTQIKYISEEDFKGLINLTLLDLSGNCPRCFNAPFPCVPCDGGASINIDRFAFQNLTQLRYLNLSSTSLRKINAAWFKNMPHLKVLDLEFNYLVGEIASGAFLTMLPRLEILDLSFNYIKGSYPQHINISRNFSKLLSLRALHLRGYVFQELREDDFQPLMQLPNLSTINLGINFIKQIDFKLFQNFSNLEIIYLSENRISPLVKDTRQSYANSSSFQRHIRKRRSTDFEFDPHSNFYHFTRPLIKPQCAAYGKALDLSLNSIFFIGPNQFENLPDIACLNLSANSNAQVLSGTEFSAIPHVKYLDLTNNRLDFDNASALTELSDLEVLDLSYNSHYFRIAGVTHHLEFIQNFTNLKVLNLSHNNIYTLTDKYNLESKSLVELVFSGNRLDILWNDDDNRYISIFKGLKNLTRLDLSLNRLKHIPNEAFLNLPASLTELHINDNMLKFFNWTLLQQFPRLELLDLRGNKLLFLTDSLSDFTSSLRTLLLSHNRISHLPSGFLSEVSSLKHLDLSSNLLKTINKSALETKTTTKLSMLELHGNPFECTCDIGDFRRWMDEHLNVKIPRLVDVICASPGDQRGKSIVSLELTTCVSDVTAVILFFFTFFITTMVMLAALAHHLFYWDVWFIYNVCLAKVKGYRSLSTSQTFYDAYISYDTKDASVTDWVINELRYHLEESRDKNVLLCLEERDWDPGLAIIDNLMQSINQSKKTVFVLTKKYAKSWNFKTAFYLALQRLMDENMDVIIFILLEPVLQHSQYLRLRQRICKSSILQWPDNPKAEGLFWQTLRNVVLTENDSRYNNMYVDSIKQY
Briefly: TLR7/8-NF-κB Reporter Assay (HEK SEAP Reporter Assay), HEK-TLR-8 cells. It is filed as cell-based. To be noted: HEK cells stably transfected with human TLR-8 and NF-κB-responsive SEAP gene, 24 h.

`CCCCc1nc2c(N)nc3cc(C(=O)OC)ccc3c2n1CCC(=O)OC` [Compound 567] gave an EC50 at human TLR-7 of 3.6 µM. This lies in the single-digit micromolar range.
Still for that read-out and setting: the figure for `CCCCc1nc2c(N)nc3cc(C(=O)OC)ccc3c2n1CCCCCC(=O)OC` [Compound 570] is 2.9 µM.
Same read-out and setting: the figure for `CCCCc1nc2c(N)nc3cc(C(=O)OC)ccc3c2n1CCCSC` [Compound 564] is 3.8 µM; for `CCCCc1nc2c(N)nc3cc(C(=O)OC)ccc3c2n1CCSCC` [Compound 565] it is 6.7 µM; for `CCCCc1nc2c(N)nc3cc(C(=O)OC)ccc3c2n1Cc1ccc(C(=O)O)cc1` [Compound 556] it is 189 µM.
With `CCCCc1nc2c(N)nc3cc(C(=O)OC)ccc3c2n1CCCN` [Compound 572], the EC50 at human TLR-8 is 66 µM.
On human TLR-7, `CCCCc1nc2c(N)nc3cc(C(=O)OC)ccc3c2n1CCCCC(=O)OC` [Compound 569] had an EC50 of 1.74 µM.
For the compound `CCCCc1nc2c(N)nc3cc(C(=O)OC)ccc3c2n1CCSC` [Compound 563], at human TLR-7, the midpoint of the response, the EC50, lay at 2.9 µM.
For the compound `CCCCc1nc2c(N)nc3cc(C(=O)OC)ccc3c2n1CCCCN` [Compound 573], the EC50 on human TLR-8 worked out at 3.85 µM.
Regarding `CCCCc1nc2c(N)nc3cc(C(=O)OC)ccc3c2n1CCCNS(=O)(=O)c1ccccc1` [Compound 544], the figures for the EC50 on human TLR-8 and on human TLR-7 were 0.24 µM and 0.42 µM, respectively.
As for `CCCCc1nc2c(N)nc3cc(C(=O)OC)ccc3c2n1CCCCCN` [Compound 574], the EC50 was found to be 2.2 µM on human TLR-8 and 0.6 µM on human TLR-7.
In the case of `CCCCc1nc2c(N)nc3cc(C(=O)OC)ccc3c2n1CCCC(=O)OC` [Compound 568], the EC50 on human TLR-7 was 4.5 µM.
Regarding “4-amino-2-butyl-1-(2-hydroxypropyl)-7-benzenesulphonyl-1H-imidazo[4,5-c]quinoline [Compound 548]”, the figures for the EC50 at human TLR-8 and on human TLR-7 were 0.29 µM and 1.53 µM, respectively.
With `CCCCc1nc2c(N)nc3cc(C(=O)OC)ccc3c2n1CC(=O)OC` [Compound 566], a half-maximal response on human TLR-7 (EC50) required 3.3 µM.
